Assay results published in patent US8865901B2, “Gain-of-function Bcl-2 inhibitors” (priority 2009, dated 2014).
Where two headings read alike, the source gives them in different places.

Assays:
[1] = system: TAMH cells overexpressing Bcl-xL (TAMH-Bcl-xL, Tabx2s); assay: Cytotoxicity / apoptosis induction in TAMH cells overexpressing Bcl-xL; assay type: cell-based; conditions: for Neo:Bcl: ratio Neo to Bcl-xL cells
Description: (§1) To examine the sensitivity of cells over-expressing Bcl-xL to various mitochondrial inhibitors and apoptosis inducers, cell lines over-expressing Bcl-xL were prepared and tested according to Hockenberry et al. U.S. Pat. No. 7,241,804, hereby incorporated by reference in its entirety. Competitive binding of compounds with fluorescent antimycin A3, and competitive binding of compounds with BH3 peptide and Bcl-2. Competitive binding of compounds with BH-3 peptide were also measured using Bcl-xL as previously described. Id.
(§2) Cell lines were grown in RPMI 1640 medium (Gibco, Grand Island, N.Y.) supplemented with 5% fetal bovine serum (Hyclone, Logan, Utah). Also shown is the ratio of TAMH cells expressing Bcl-xL to those expressing A142L (WT:142L). The assay measures the potency of various compounds with respect to inducing apoptosis in these cells.
(§3) The compounds described in Example 2 were tested for their ability to inhibit Bcl-2 gain-of-function in TAMH cells, TAMH cells overexpressing […] (TAMH-Bcl-xL), TAMH cells transfected with Neo vector (Neo), TAMH cells over expressing a variant of Bcl-xL (A142L) using the methods of Example 1. 3-6.
(§4) The effects of the compounds described in Example 8 on TAMH cells, TAMH cells overexpressing Bcl-xL (TAMH-Bcl-xL), TAMH cells transfected with Neo vector (Neo), TAMH cells over expressing a variant of Bcl-xL (A142L) is shown in Table 8
(§5) The effects of the compounds described in Example 10 on TAMH cells, TAMH cells overexpressing Bcl-xL (TAMH-Bcl-xL), TAMH cells transfected with Neo vector (Neo), TAMH cells over expressing a variant of Bcl-xL (A142L) is shown in the following Table 10

[2] = system: TAMH cells transfected with Neo vector (Neo); assay: Cytotoxicity / apoptosis induction in TAMH cells transfected with Neo vector; assay type: cell-based; conditions: TAMH Neo cells
Description: as §1, §2, §3, §4, §5

[3] = system: CFPAC-1, HPAF-II MIA PaCa, PaTu-1, PaTu-8988t, ASPC-1, FA-6, and PANC-1 cell lines; assay: EC50 in a panel of pancreatic cell lines; assay type: cell-based; conditions: Homo sapiens; every pancreatic cell line of the panel, but for HPAF-II; FIG. 1
Description: The EC50 for the Compound 0216 (see structure above) was determined in a panel of pancreatic cell lines.
(§6) The panel included CFPAC-1, HPAF-II MIA PaCa, PaTu-1, PaTu-8988t, ASPC-1, FA-6, and PANC-1 cell lines. Pancreatic cancer samples were obtained from patients, with appropriate patient consent and approval of the Fred Hutchinson Cancer Research Center Institutional Review Board. Primary cells were maintained in Iscove's medium supplemented with 10% bovine calf serum, 100 ng·ml^−1 stem cell factor, and 50 ng·ml^−1 interleukin-3.
The EC50 values were measured with compound 216. […] This means that this molecule has a broad ability to induce apoptosis in a wide variety of pancreatic cancers.
as §6, with “institutional approval.” for “approval of the Fred Hutchinson Cancer Research Center Institutional Review Board.”
The EC50 values were measured with compound FH279.

[4] = system: TAMH cells over expressing a variant of Bcl-xL (A142L); assay: Cytotoxicity / apoptosis induction in TAMH cells over expressing Bcl-xL variant A142L; assay type: cell-based; conditions: Table 4; for EC50: TAMH A142L cells; for WT:142L: ratio of TAMH cells expressing Bcl-xL to those expressing A142L
Description: as §1, §2, §3

[5] = system: OVCAR-3, an ovarian tumor; assay: Apoptosis induction against solid tumors in vitro, OVCAR-3; assay type: cell-based
Description: (§7) The ability of compounds from Example 2 to induce apoptosis against solid tumors in vitro was tested. Four solid tumors were tested: OVCAR-3, an ovarian tumor; COLO205, a colonic tumor; HOP-62 and H23, both NSCLC tumors. The experimental compounds were compared to 2MeAA and to ABT-737, a clinical stage compound owned by Abbott Pharma.
(§8) The ability of compounds of Example 8 to induce apoptosis against solid tumors in vitro was tested. Four solid tumors were tested: OVCAR-3, an ovarian tumor; COLO205, a colonic tumor; HOP-62 and H23, both NSCLC tumors. The experimental compounds, […]

COLO205, a colonic tumor = assay: Apoptosis induction against solid tumors in vitro, COLO205; assay type: cell-based
Description: as §7, §8

HOP-62, NSCLC tumor = assay: Apoptosis induction against solid tumors in vitro, HOP-62; assay type: cell-based
Description: as §7, §8

H23, NSCLC tumor = assay: Apoptosis induction against solid tumors in vitro, H23; assay type: cell-based
Description: as §7, §8

Colo205 cells = assay: Mouse colon carcinoma xenograft model; assay type: in vivo, NOD/Les2 SCID/J mice; conditions: daily intraperitoneal administration, single agent; FIG. 4
Description: The ability of the experimental compounds to inhibit tumor growth in a body was tested in a mouse colon carcinoma xenograft model.
(§9) Six to nine-week old NOD/Les2 SCID/J mice were inoculated with 3×10^7 Colo205 cells by interscapular subcutaneous injection. Mice were maintained under specific pathogen-free conditions. Palpable tumor nodules were measured in two dimensions with calipers and tumor volumes calculated in mm3 as (length×width^2)/2. Blood samples were collected by retro-orbital bleed for human light chain measurements by ELISA using lambda-specific antibody (BD Biosciences). Animals were sacrificed by halothane inhalation, and histologic examination of the tumors and internal organs was performed. All experiments were approved by the FHCRC Institutional Animal Care and Use Committee.
Animals were treated by daily intraperitoneal administration of Compound 0511 (see structure above in Example 2).
as §9, with “Animals were sacrificed by halothane inhalation, and histologic examination of the tumors and internal organs was performed. All experiments were approved by the FHCRC Institutional Animal Care and Use Committee.” left out

[6] = Table 4, TAMH-Bcl-xL cells, read-out: Bcl-xL

Row | Compound | EC50 ([1]; Mus musculus, Table 6, TAMH cells overexpressing Bcl-xL (Tabx2s), read-out: 2S EC50) | sensitivity to the apoptosis-inducing effects ([1]; TAMH cells overexpressing Bcl-xL compared to TAMH neo cells, FIG. 2) | EC50 ([2]; Mus musculus, Table 6, read-out: Neo EC50) | EC50 [3] | EC50 [1, 6] | Neo:Bcl ([1]; Table 4) | EC50 ([2]; Table 4, read-out: Neo) | EC50 [4] | WT:142L [4] | EC50 ([5]; Table 7) | EC50 ([5]; Table 21) | EC50 (COLO205, a colonic tumor; Table 7) | EC50 (COLO205, a colonic tumor; Table 21) | EC50 (HOP-62, NSCLC tumor; Table 7) | EC50 (HOP-62, NSCLC tumor; Table 21) | EC50 (H23, NSCLC tumor; Table 7) | EC50 (H23, NSCLC tumor; Table 21) | tumor growth (Colo205 cells)
1 | O=[N+]([O-])c1ccc(SCc2ccccc2)c2nonc12 [Compound 0216] | 1.2 µM | more sensitive | 3.7 µM | < 10 µM | – | – | – | – | – | – | – | – | – | – | – | – | – | –
2 | 2-methoxy antimycin A [Compound 2-MeAA, reference compound] | – | – | – | – | 2.5 µM | 6.9 | 15.6 µM | 10.3 µM | 4.1 | 3.5 µM | 3.5 µM | 1.8 µM | 1.8 µM | 3.9 µM | 3.9 µM | 2.7 µM | 2.7 µM | –
3 | O=[N+]([O-])c1cccc(/C=N/Nc2ccccn2)c1O [Compound 0208] | – | – | – | – | 4.4 µM | 5.7 | > 25 µM | 9.7 µM | 2.2 | 3.8 µM | – | 9.2 µM | – | 17.5 µM | – | 8.2 µM | – | –
4 | O=C1c2ccccc2C(=O)c2c1n[n+]([O-])n2CCCN1CCN(c2ccccn2)CC1 [Compound 0511] | – | – | – | – | – | – | – | – | – | – | – | – | – | – | – | – | – | effective in inhibiting tumor growth
